pIC50: −log10 of the molar value.
Target: Tyrosine-protein kinase BTK (Homo sapiens, UniProt Q06187)
Sequence (Q06187 whole entry): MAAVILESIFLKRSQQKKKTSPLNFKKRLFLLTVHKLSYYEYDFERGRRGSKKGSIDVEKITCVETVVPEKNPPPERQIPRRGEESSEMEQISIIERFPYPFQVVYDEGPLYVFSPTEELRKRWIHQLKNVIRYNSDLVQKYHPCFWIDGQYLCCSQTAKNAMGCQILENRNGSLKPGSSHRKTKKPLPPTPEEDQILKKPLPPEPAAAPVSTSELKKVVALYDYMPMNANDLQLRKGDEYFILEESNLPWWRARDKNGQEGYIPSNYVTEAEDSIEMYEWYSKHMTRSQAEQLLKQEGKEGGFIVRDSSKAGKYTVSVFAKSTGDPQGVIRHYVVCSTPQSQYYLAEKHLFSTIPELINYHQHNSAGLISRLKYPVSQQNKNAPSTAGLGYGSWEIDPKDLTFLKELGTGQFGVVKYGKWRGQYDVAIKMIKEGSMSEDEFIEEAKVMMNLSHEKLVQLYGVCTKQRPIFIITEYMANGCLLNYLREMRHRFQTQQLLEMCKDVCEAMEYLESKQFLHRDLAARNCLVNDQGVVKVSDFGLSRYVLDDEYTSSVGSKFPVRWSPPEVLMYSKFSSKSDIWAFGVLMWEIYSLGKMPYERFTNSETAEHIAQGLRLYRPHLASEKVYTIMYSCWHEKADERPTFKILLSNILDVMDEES

pIC50: < 7.00
SMILES: C=CC(=O)Nc1ccccc1Nc1nc(Nc2ccc(OCCCOC3(CC)OCC(C)(C)CO3)cc2)ncc1F [US11440904, Compound 9]

From BindingDB's records for patent US11440904 (2022)
